Test system: Bp
Parameters: species or system BALB/c mice
Conditions: mouse, in vivo

## gentamicin [free (i.e., unencapsulated) gentamicin]
  bacterial burdens in lungs, livers, and spleens: 10^3-10^5 CFUs/organ
  time to death of all mice after infection: ≤ 4 days

Source: US20180049984A1 (priority 2014, published 2018)
